This is an account of results in US20070287738A1, “Substituted Cyanopyridines as protein kinase inhibitors” (priority 2006, published 2007).

The target of the first assay is T1, human PKCθ full length enzyme (Homo sapiens, UniProt Q04759).
T1 construct: human PKCθ full length enzyme (Panvera Cat# P2996); purchased Panvera P2996
T1 sequence (Q04759 whole entry): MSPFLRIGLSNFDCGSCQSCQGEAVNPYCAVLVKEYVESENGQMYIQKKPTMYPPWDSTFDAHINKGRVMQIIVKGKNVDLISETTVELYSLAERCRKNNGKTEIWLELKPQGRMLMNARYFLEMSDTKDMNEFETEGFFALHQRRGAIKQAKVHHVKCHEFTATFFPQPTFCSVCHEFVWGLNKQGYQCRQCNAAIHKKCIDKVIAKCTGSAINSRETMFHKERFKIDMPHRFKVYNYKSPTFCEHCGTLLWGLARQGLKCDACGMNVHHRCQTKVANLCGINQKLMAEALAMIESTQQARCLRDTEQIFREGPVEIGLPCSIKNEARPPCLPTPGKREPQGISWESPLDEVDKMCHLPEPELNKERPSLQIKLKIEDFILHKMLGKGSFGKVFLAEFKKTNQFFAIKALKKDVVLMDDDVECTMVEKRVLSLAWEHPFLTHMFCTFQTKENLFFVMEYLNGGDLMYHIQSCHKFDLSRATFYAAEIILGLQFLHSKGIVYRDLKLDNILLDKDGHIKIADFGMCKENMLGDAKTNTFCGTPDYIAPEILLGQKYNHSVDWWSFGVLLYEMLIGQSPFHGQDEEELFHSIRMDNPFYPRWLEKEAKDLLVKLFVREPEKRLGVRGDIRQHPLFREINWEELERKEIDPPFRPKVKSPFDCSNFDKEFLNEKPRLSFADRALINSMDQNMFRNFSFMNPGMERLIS
Put plainly: PKCθ IMAP assay. Format: biochemical. The settings on record: full length enzyme 1 nM; ATP 6 μM; peptide 100 nM; FP readout; average value. How it is done: The materials used include the following: human PKCθ full length enzyme (Panvera Cat# P2996); substrate peptide: 5FAM-RFARKGSLRQKNV-OH (Molecular Devices, RP7032); ATP (Sigma Cat # A2383); DTT (Pierce, 20291); 5× kinase reaction buffer (Molecular Devices, R7209); 5× binding buffer A (Molecular Devices, R7282), 5× binding buffer B (Molecular Devices, R7209); IMAP Beads (Molecular Devices, R7284); and 384-well plates (Corning Costar, 3710).
The reaction buffer was prepared by diluting the 5× stock reaction buffer and adding DTT to obtain a concentration of 3.0 mM. The binding buffer was prepared by diluting the 5× binding buffer A. A master mix solution was prepared using a 90% dilution of the reaction buffer containing 2× ATP (12 uM) and 2× peptide (200 nm). Compounds were diluted in DMSO to 20× of the maximum concentration for the IC50 measurement. 27 μl of the master mix solution for each IC50 curve was added to the first column in a 384-well plate and 3 μl of 20× compound in DMSO was added to each well. The final concentration of compound was 2× and 10% DMSO. DMSO was added to the rest of the master mix to increase the concentration to 10%. 10 μl of the master mix containing 10% DMSO was added to the rest of the wells on the plate except the 2nd column. 20 μl was transferred from the first column to the 2nd column.
The compounds were serially diluted in 2:1 ratio starting from the 2nd column. A 2× (2 nM) PKCθ solution was made in the reaction buffer. 10 μl of the PKCθ solution was added to every well to achieve these final concentrations: PKCθ—1 nM; ATP—6 μM; peptide—100 nM; DMSO—5%. Samples were incubated for 25 minutes at room temperature. The binding reagent was prepared by diluting the beads in 1× binding buffer to 800:1. 50 μl of the binding reagent was added to every well and incubated for 20 minutes. FP was measured using Envision2100 (PerkinElmer Life Sciences). Wells with no ATPs and wells with no enzymes were used as controls.
What is called IC50 is the concentration that inhibits the measured activity by half. The molecule `COc1ccc(-c2cncc(C#N)c2Nc2cccc(NC(C)=O)c2)cc1OC` [Compound 127, N-(3-{[3-cyano-5-(3,4-dimethoxyphenyl)pyridin-4-yl]amino}phenyl) acetamide] returned a half-inhibitory concentration (IC50) of 570 nM. Molecule `COc1ccc(-c2cncc(C#N)c2Nc2cccc(N(C)C(C)=O)c2)cc1OC` [Compound 128, N-(3-{[3-cyano-5-(3,4-dimethoxyphenyl)pyridin-4-yl]amino}phenyl)-N-methylacetamide] came in with an IC50 of 35000 nM. Same read-out and setting: in the case of `COc1ccc(-c2cncc(C#N)c2Nc2cccc(NS(C)(=O)=O)c2)cc1OC` [Compound 129, N-(3-{[3-cyano-5-(3,4-dimethoxyphenyl)pyridin-4-yl]amino}phenyl)methanesulfonamide] it was 36000 nM; in that of `COc1cccc(Nc2c(C#N)cncc2-c2ccc(N(C)C)cc2)c1` [Compound 130, 5-[4-(dimethylamino)phenyl]-4-[(3-methoxyphenyl)amino]nicotinonitrile], 800 nM.

For the molecule `CN(C)c1ccc(-c2cncc(C#N)c2Nc2cccc(F)c2)cc1` [Compound 131, 5-[4-(dimethylamino)phenyl]-4-[(3-fluorophenyl)amino]nicotinonitrile], it took 710 nM to reach half-maximal inhibition (IC50). In turn, `CN(C)c1ccc(-c2cncc(C#N)c2Nc2ccc(C#N)cc2)cc1` [Compound 133, 4-[(4-cyanophenyl)amino]-5-[4-(dimethylamino)phenyl]nicotinonitrile] gave an IC50 of 30000 nM. The molecule `CN(C)c1ccc(-c2cncc(C#N)c2Nc2ccc(F)c(F)c2)cc1` [Compound 134, 4-[(3,4-difluorophenyl)amino]-5-[4-(dimethylamino)phenyl]nicotinonitrile] gave an IC50 of 2030 nM. In turn, `CN(C)c1ccc(-c2cncc(C#N)c2Nc2cccc([N+](=O)[O-])c2)cc1` [Compound 152, 5-[4-(dimethylamino)phenyl]-4-[(3-nitrophenyl)amino]nicotinonitrile] gave an IC50 of 7840 nM. Molecule `COc1cccc(-c2cncc(C#N)c2Nc2cccc([N+](=O)[O-])c2)c1` [Compound 153, 5-(3-methoxyphenyl)-4-[(3-nitrophenyl)amino]nicotinonitrile] gave an IC50 of 9630 nM. `COc1cccc(Nc2c(C#N)cncc2-c2cccc(OC)c2)c1` [Compound 154, 5-(3-methoxyphenyl)-4-[(3-methoxyphenyl)amino]nicotinonitrile] came in with an IC50 of 1730 nM. Regarding `COc1cccc(-c2cncc(C#N)c2Nc2cccc(F)c2)c1` [Compound 155, 4-[(3-fluorophenyl)amino]-5-(3-methoxyphenyl)nicotinonitrile], the IC50 turned out to be 1570 nM. `COc1cccc(-c2cncc(C#N)c2Nc2ccc(C(=O)O)cc2)c1` [Compound 156, 4-{[3-cyano-5-(3-methoxyphenyl)pyridin-4-yl]amino}benzoic acid] displayed an IC50 of 46400 nM. The same measure, in the same setting: for `COc1cccc(-c2cncc(C#N)c2Nc2ccc(C#N)cc2)c1` [Compound 157, 4-[(4-cyanophenyl)amino]-5-(3-methoxyphenyl)nicotinonitrile] the value was over 95000 nM. For `COc1cccc(-c2cncc(C#N)c2Nc2ccc(F)c(F)c2)c1` [Compound 158, 4-[(3,4-difluorophenyl)amino]-5-(3-methoxyphenyl)nicotinonitrile], the IC50 amounted to 2400 nM.

Turning to `COc1ccc(-c2cncc(C#N)c2Nc2cccc(O)c2)cc1OC` [Compound 159, 5-(3,4-dimethoxyphenyl)-4-[(3-hydroxyphenyl)amino]nicotinonitrile], the IC50 was found to be 310 nM. In turn, `COc1ccc(-c2cncc(C#N)c2Nc2cccc(OCCO)c2)cc1OC` [Compound 160, 5-(3,4-dimethoxyphenyl)-4-{[3-(2-hydroxyethoxy)phenyl]amino}nicotinonitrile] showed an IC50 of 5210 nM.

`COc1ccc(-c2cncc(C#N)c2Nc2cccc(OC[C@@H](N)Cc3ccccc3)c2)cc1OC` [Compound 161, 4-[(3-{[(2S)-2-amino-3-phenylpropyl]-oxy}-phenyl)amino]-5-(3,4-dimethoxyphenyl)nicotinonitrile] yielded an IC50 of 820 nM. For `N#Cc1cncc(-c2cc3cc(C=O)ccc3s2)c1Nc1cc(O)ccc1Cl` [Compound 162, 4-[(2-chloro-5-hydroxyphenyl)amino]-5-(5-formyl-1-benzothein-2-yl)nicotinonitrile], the IC50 stood at 30 nM.

`N#Cc1cncc(-c2cc3cc(CN4CCCCC4)ccc3s2)c1Nc1cc(O)ccc1Cl` [Compound 163, 4-[(2-chloro-5-hydroxyphenyl)amino]-5-[5-(piperidin-1-ylmethyl)-1-benzothien-2-yl]nicotinonitrile] had an IC50 of 30 nM. The same measure, in the same setting: for `N#Cc1cncc(-c2cc3cc(CN4CCCCC4)ccc3s2)c1Nc1cc(OCCO)ccc1Cl` [Compound 164] the value was 60 nM; for `Cc1c(N)ccc(Nc2c(C#N)cncc2-c2cc3cc(CN4CCCCC4)ccc3s2)c1C` [Compound 165, 4-[(4-amino-2,3-dimethylphenyl)amino]-5-[5-(piperidin-1-ylmethyl)-1-benzothien-2-yl]nicotinonitrile], 650 nM. `Cc1cc(Nc2c(C#N)cncc2-c2cc3cc(CN4CCCCC4)ccc3s2)ccc1N` [Compound 166, 4-[(4-amino-3-methylphenyl)amino]-5-[5-(piperidin-1-ylmethyl)-1-benzothien-2-yl]nicotinonitrile]: the IC50 is 1060 nM. The same measure, in the same setting: for `COc1ccc(Cl)c(Nc2c(C#N)cncc2-c2cc3cc(CN4CCCCC4)ccc3o2)c1` [Compound 167, 4-[(2-chloro-5-methoxyphenyl)amino]-5-[5-(piperidin-1-ylmethyl)-1-benzofuran-2-yl]nicotinonitrile] the value was 730 nM; for `Cc1ccc(Cl)c(Nc2c(C#N)cncc2-c2cc3cc(CN4CCCCC4)ccc3o2)c1` [Compound 168, 4-[(2-chloro-5-methylphenyl)amino]-5-[5-(piperidin-1-ylmethyl)-1-benzofuran-2-yl]nicotinonitrile], 2040 nM; for `N#Cc1cncc(-c2cc3cc(CN4CCCCC4)ccc3o2)c1Nc1cc(O)ccc1Oc1ccccc1` [Compound 169, 4-[(5-hydroxy-2-phenoxyphenyl)amino]-5-[5-(piperidin-1-ylmethyl)-1-benzofuran-2-yl]nicotinonitrile], 650 nM. `COc1ccc(-c2cncc(C#N)c2NCc2cccc(CN)c2)cc1OC` [Compound 170, 4-{[3-(aminomethyl)benzyl]amino}-5-(3,4-dimethoxyphenyl)nicotinonitrile] returned an IC50 of 11900 nM. Turning to `N#Cc1cncc(-c2cc3cc(CN4CCCCC4)ccc3o2)c1Nc1cc(O)c(Cl)cc1Cl` [Compound 171, 4-[(2,4-dichloro-5-hydroxyphenyl)amino]-5-[5-(piperidin-1-ylmethyl)-1-benzofuran-2-yl]nicotinonitrile], the IC50 was determined as 270 nM. As for `COc1ccc(Nc2c(C#N)cncc2-c2cc3cc(CN4CCCCC4)ccc3o2)c(C)c1` [Compound 172, 4-[(4-methoxy-2-methylphenyl)amino]-5-[5-(piperidin-1-ylmethyl)-1-benzofuran-2-yl]nicotinonitrile], the IC50 amounted to 160 nM.

For the next assay, the target named is T2, purified recombinant active kinase domain of full length PKC theta (amino acids 362-706) (Homo sapiens, UniProt Q04759).
T2 construct: active kinase domain of full length PKC theta (amino acids 362-706)
T2 sequence (Q04759 362-706): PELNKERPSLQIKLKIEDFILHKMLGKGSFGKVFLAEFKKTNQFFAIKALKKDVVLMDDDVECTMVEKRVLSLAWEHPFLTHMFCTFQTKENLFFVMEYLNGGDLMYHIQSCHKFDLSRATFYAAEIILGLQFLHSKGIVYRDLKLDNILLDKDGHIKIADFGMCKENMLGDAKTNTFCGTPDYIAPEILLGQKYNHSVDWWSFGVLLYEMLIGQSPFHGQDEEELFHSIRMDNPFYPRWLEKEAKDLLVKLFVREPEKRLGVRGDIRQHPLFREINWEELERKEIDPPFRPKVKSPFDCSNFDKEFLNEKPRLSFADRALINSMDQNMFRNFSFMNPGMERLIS
Put plainly: Radioactive kinase assay for inhibition of the active kinase domain (KD) of PKCθ. The class given is biochemical. To be noted: radioactive (ATP γ P33) assay, average value. The procedure: A Radioactive Kinase Assay for Inhibition of the Active Kinase Domain (KD) of PKCθ
This assay is based on the phosphorylation of a biotinylated substrate by a kinase utilizing radiolabeled ATP (ATP γ P33). The substrate was a biotinylated peptide with a sequence of biotin-FARKGSLRQ-C(O)NH2. The enzyme was purified recombinant active kinase domain of full length PKC theta (amino acids 362-706). The assay buffer was composed of 100 mM Hepes, pH7.5, 2 mM MgCl2, 20 mM β-glycerophosphate and 0.008% TritonX 100. A reaction mixture of ATP, ATP γ P33 (PerkinElmer), DTT, and the enzyme was prepared in the assay buffer and added to a 96-well polypropylene plate. The compound (diluted in DMSO in a separate 96-well polypropylene plate) was added to the reaction mixture and incubated at room temperature. Following the incubation, the peptide substrate was added to the reaction mixture to initiate the enzymatic reaction. The reaction was terminated with the addition of a stop solution (100 mM EDTA, 0.2% TritonX100, and 20 mM NaHPO4) and transferred from the assay plate to a washed streptavidin-coated 96-well scintiplate (PerkinElmer). The scintiplate was incubated at room temperature, washed in PBS with 0.1% TritonX 100, and counted in the 1450 Microbeta Trilux (Wallac, Version 2.60). Counts were recorded for each well as corrected counts per minute (CCPM). The counts were considered corrected because they were adjusted according to a P33 normalization protocol, which corrects for efficiency and background differences between the instrument detectors (software version 4.40.01).
As for `COc1ccc(-c2cncc(C#N)c2Nc2cccc(Cl)c2)cc1OC` [Compound 101, 4-[(3-chlorophenyl)amino]-5-(3,4-dimethoxyphenyl)nicotinonitrile], the IC50 worked out at 6870 nM.

Turning to `COc1ccc(-c2cncc(C#N)c2Nc2cc(F)ccc2F)cc1OC` [Compound 104, 4-[(2,5-difluorophenyl)amino]-5-(3,4-dimethoxyphenyl)nicotinonitrile], the IC50 stood at 600 nM.
